Results reported in the supplement of paper PMC10307832.

Key:
Experiment in all cases: relative viability (nuclei count vs DMSO), 5 days (fraction); higher = more cells survive
[1] = tested on: 201T
In short: (§1)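 Cells from lung cancer lines were seeded into 1536-well plates and, one day later, dosed by pin tool. Treatments were either a single drug or a fixed dose of an anchor drug with five library-drug doses (not always all listed) in √10 steps. After 5 days, nuclei were stained in a one-step fixation (final 0.05% Triton X-100, 1% formaldehyde, 1 ug/ml Hoechst) and counted on 4× images, and relative viability is the treated-to-vehicle nuclei ratio, as the median of duplicate plates.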

[2] = tested on: ABC-1
In short: as §1

[3] = tested on: COR-L23
In short: as §1

[4] = tested on: EKVX
In short: as §1

[5] = tested on: EPLC-272H
In short: as §1

[6] = tested on: HCC-44
In short: as §1

[7] = tested on: LOU-NH91
In short: as §1

[8] = tested on: NCI-H1650
In short: as §1

[9] = tested on: NCI-H1734
In short: as §1

[10] = tested on: NCI-H1793
In short: as §1

[11] = tested on: NCI-H1993
In short: as §1

[12] = tested on: NCI-H2023
In short: as §1

[13] = tested on: NCI-H2085
In short: as §1

[14] = tested on: NCI-H2170
In short: as §1

[15] = tested on: NCI-H2347
In short: as §1

[16] = tested on: NCI-H2405
In short: as §1

[17] = tested on: NCI-H3122
In short: as §1

[18] = tested on: NCI-H441
In short: as §1

[19] = tested on: NCI-H520
In short: as §1

[20] = tested on: NCI-H647
In short: as §1

[21] = tested on: PC-14
In short: as §1

[22] = tested on: RERF-LC-KJ
In short: as §1

[23] = tested on: SW 900
In short: as §1

Compound `COc1cc(N2CCC(C(N)=O)CC2)ccc1Nc1nc(N)c(Cl)c(Nc2ccccc2S(=O)(=O)C(C)C)n1` [HG-5-88-01] + Nc1ncn([C@H]2C[C@H](O)[C@@H](CO)O2)c(=O)n1 [Decitabine] (partner 2 µM) has a relative viability ([1]; first compound 0.04 µM) of 0.856, a relative viability ([1]; first compound 0.1265 µM) of 0.864 and a relative viability ([1]; first compound 1.265 µM) of 0.852. It also gave a relative viability ([1]; first compound 4 µM) of 0.891, a relative viability ([2]; first compound 0.04 µM) of 0.998 and a relative viability ([2]; first compound 0.1265 µM) of 1.09. For the same compound, the relative viability ([2]; first compound 0.4 µM) was 1.1, the relative viability ([2]; first compound 1.265 µM) was 0.884 and the relative viability ([2]; first compound 4 µM) was 0.946. The relative viability ([3]; first compound 0.04 µM) was 0.405, the relative viability ([3]; first compound 0.1265 µM) was 0.531 and the relative viability ([3]; first compound 0.4 µM) was 0.543. For the same compound, the relative viability ([3]; first compound 1.265 µM) was 0.379, the relative viability ([3]; first compound 4 µM) was 0.391 and the relative viability ([4]; first compound 0.04 µM) was 0.392. It also gave a relative viability ([4]; first compound 0.1265 µM) of 0.332, a relative viability ([4]; first compound 0.4 µM) of 0.389 and a relative viability ([4]; first compound 4 µM) of 0.345. For the same compound, the relative viability ([5]; first compound 0.04 µM) was 0.32, the relative viability ([5]; first compound 0.1265 µM) was 0.371 and the relative viability ([5]; first compound 0.4 µM) was 0.47. It also gave a relative viability ([5]; first compound 1.265 µM) of 0.266, a relative viability ([5]; first compound 4 µM) of 0.117 and a relative viability ([6]; first compound 0.04 µM) of 0.936. For the same compound, the relative viability ([6]; first compound 0.1265 µM) was 0.996, the relative viability ([6]; first compound 0.4 µM) was 0.913 and the relative viability ([6]; first compound 1.265 µM) was 0.996. For the same compound, the relative viability ([6]; first compound 4 µM) was 0.817, the relative viability ([7]; first compound 0.04 µM) was 0.796 and the relative viability ([7]; first compound 0.1265 µM) was 0.844. For the same compound, the relative viability ([7]; first compound 0.4 µM) was 0.725, the relative viability ([7]; first compound 1.265 µM) was 0.587 and the relative viability ([7]; first compound 4 µM) was 0.6. It also gave a relative viability ([8]; first compound 0.04 µM) of 0.378, a relative viability ([8]; first compound 0.1265 µM) of 0.559 and a relative viability ([8]; first compound 0.4 µM) of 0.527. For the same compound, the relative viability ([8]; first compound 1.265 µM) was 0.559, the relative viability ([8]; first compound 4 µM) was 0.413 and the relative viability ([9]; first compound 0.04 µM) was 0.526. It also gave a relative viability ([9]; first compound 0.1265 µM) of 0.564, a relative viability ([9]; first compound 0.4 µM) of 0.511 and a relative viability ([9]; first compound 1.265 µM) of 0.462. For the same compound, the relative viability ([9]; first compound 4 µM) was 0.532, the relative viability ([10]; first compound 0.04 µM) was 0.554 and the relative viability ([10]; first compound 0.1265 µM) was 0.518. For the same compound, the relative viability ([10]; first compound 0.4 µM) was 0.701, the relative viability ([10]; first compound 1.265 µM) was 0.408 and the relative viability ([10]; first compound 4 µM) was 0.499. For the same compound, the relative viability ([11]; first compound 0.04 µM) was 0.583, the relative viability ([11]; first compound 0.1265 µM) was 0.709 and the relative viability ([11]; first compound 0.4 µM) was 0.586. For the same compound, the relative viability ([11]; first compound 4 µM) was 0.545, the relative viability ([12]; first compound 0.04 µM) was 0.223 and the relative viability ([12]; first compound 0.1265 µM) was 0.244. The relative viability ([12]; first compound 0.4 µM) was 0.229, the relative viability ([12]; first compound 1.265 µM) was 0.236 and the relative viability ([12]; first compound 4 µM) was 0.256. The relative viability ([13]; first compound 0.04 µM) was 0.6, the relative viability ([13]; first compound 0.1265 µM) was 0.625 and the relative viability ([13]; first compound 0.4 µM) was 0.582. For the same compound, the relative viability ([13]; first compound 1.265 µM) was 0.544, the relative viability ([13]; first compound 4 µM) was 0.607 and the relative viability ([14]; first compound 0.04 µM) was 0.461. It also gave a relative viability ([14]; first compound 0.1265 µM) of 0.479, a relative viability ([14]; first compound 0.4 µM) of 0.509 and a relative viability ([14]; first compound 1.265 µM) of 0.439. The relative viability ([14]; first compound 4 µM) was 0.486, the relative viability ([15]; first compound 0.04 µM) was 0.632 and the relative viability ([15]; first compound 0.1265 µM) was 0.637. For the same compound, the relative viability ([15]; first compound 0.4 µM) was 0.729, the relative viability ([15]; first compound 1.265 µM) was 0.672 and the relative viability ([15]; first compound 4 µM) was 0.645. The relative viability ([16]; first compound 0.04 µM) was 0.67, the relative viability ([16]; first compound 0.1265 µM) was 0.754 and the relative viability ([16]; first compound 0.4 µM) was 0.783. For the same compound, the relative viability ([16]; first compound 1.265 µM) was 0.624, the relative viability ([16]; first compound 4 µM) was 0.672 and the relative viability ([17]; first compound 0.04 µM) was 0.365. For the same compound, the relative viability ([17]; first compound 0.1265 µM) was 0.279, the relative viability ([17]; first compound 0.4 µM) was 0.223 and the relative viability ([17]; first compound 1.265 µM) was 0.127. The relative viability ([17]; first compound 4 µM) was 0.0935, the relative viability ([18]; first compound 0.04 µM) was 0.235 and the relative viability ([18]; first compound 0.1265 µM) was 0.28. The relative viability ([18]; first compound 0.4 µM) was 0.272, the relative viability ([18]; first compound 1.265 µM) was 0.231 and the relative viability ([18]; first compound 4 µM) was 0.271. It also gave a relative viability ([19]; first compound 0.04 µM) of 0.483, a relative viability ([19]; first compound 0.1265 µM) of 0.478 and a relative viability ([19]; first compound 0.4 µM) of 0.584. It also gave a relative viability ([19]; first compound 1.265 µM) of 0.516, a relative viability ([19]; first compound 4 µM) of 0.538 and a relative viability ([20]; first compound 0.04 µM) of 0.375. For the same compound, the relative viability ([20]; first compound 0.1265 µM) was 0.494, the relative viability ([20]; first compound 1.265 µM) was 0.529 and the relative viability ([20]; first compound 4 µM) was 0.679. The relative viability ([21]; first compound 0.04 µM) was 0.215, the relative viability ([21]; first compound 0.1265 µM) was 0.231 and the relative viability ([21]; first compound 0.4 µM) was 0.235. It also gave a relative viability ([21]; first compound 1.265 µM) of 0.206, a relative viability ([21]; first compound 4 µM) of 0.0628 and a relative viability ([22]; first compound 0.04 µM) of 0.736. For the same compound, the relative viability ([22]; first compound 0.1265 µM) was 0.737, the relative viability ([22]; first compound 0.4 µM) was 0.7 and the relative viability ([22]; first compound 1.265 µM) was 0.781. For the same compound, the relative viability ([22]; first compound 4 µM) was 0.528, the relative viability ([23]; first compound 0.04 µM) was 0.419 and the relative viability ([23]; first compound 0.1265 µM) was 0.441. The relative viability ([23]; first compound 0.4 µM) was 0.528, the relative viability ([23]; first compound 1.265 µM) was 0.492 and the relative viability ([23]; first compound 4 µM) was 0.436.
